Measured values reported in US8962573B2 (INSERM (Institut National de la Sante et de la Recherche …, priority 2009, dated 2015).
Where “and” joins values, the source holds several entries; their conditions need not be identical. Identical values can stand only once. Entries after “also recorded” stand apart in the source; their conditions may differ. Like-named read-outs stand apart in the source and are kept apart here.

What was measured:
CI-M6PR [1] = target: T1, CI-M6PR (Homo sapiens, UniProt P11717); type: cell-based; settings: pre-incubation with 10 mM
T1 construct: endogenous in cells; host or cells: normal human fibroblasts
T1 sequence (P11717 41-2491): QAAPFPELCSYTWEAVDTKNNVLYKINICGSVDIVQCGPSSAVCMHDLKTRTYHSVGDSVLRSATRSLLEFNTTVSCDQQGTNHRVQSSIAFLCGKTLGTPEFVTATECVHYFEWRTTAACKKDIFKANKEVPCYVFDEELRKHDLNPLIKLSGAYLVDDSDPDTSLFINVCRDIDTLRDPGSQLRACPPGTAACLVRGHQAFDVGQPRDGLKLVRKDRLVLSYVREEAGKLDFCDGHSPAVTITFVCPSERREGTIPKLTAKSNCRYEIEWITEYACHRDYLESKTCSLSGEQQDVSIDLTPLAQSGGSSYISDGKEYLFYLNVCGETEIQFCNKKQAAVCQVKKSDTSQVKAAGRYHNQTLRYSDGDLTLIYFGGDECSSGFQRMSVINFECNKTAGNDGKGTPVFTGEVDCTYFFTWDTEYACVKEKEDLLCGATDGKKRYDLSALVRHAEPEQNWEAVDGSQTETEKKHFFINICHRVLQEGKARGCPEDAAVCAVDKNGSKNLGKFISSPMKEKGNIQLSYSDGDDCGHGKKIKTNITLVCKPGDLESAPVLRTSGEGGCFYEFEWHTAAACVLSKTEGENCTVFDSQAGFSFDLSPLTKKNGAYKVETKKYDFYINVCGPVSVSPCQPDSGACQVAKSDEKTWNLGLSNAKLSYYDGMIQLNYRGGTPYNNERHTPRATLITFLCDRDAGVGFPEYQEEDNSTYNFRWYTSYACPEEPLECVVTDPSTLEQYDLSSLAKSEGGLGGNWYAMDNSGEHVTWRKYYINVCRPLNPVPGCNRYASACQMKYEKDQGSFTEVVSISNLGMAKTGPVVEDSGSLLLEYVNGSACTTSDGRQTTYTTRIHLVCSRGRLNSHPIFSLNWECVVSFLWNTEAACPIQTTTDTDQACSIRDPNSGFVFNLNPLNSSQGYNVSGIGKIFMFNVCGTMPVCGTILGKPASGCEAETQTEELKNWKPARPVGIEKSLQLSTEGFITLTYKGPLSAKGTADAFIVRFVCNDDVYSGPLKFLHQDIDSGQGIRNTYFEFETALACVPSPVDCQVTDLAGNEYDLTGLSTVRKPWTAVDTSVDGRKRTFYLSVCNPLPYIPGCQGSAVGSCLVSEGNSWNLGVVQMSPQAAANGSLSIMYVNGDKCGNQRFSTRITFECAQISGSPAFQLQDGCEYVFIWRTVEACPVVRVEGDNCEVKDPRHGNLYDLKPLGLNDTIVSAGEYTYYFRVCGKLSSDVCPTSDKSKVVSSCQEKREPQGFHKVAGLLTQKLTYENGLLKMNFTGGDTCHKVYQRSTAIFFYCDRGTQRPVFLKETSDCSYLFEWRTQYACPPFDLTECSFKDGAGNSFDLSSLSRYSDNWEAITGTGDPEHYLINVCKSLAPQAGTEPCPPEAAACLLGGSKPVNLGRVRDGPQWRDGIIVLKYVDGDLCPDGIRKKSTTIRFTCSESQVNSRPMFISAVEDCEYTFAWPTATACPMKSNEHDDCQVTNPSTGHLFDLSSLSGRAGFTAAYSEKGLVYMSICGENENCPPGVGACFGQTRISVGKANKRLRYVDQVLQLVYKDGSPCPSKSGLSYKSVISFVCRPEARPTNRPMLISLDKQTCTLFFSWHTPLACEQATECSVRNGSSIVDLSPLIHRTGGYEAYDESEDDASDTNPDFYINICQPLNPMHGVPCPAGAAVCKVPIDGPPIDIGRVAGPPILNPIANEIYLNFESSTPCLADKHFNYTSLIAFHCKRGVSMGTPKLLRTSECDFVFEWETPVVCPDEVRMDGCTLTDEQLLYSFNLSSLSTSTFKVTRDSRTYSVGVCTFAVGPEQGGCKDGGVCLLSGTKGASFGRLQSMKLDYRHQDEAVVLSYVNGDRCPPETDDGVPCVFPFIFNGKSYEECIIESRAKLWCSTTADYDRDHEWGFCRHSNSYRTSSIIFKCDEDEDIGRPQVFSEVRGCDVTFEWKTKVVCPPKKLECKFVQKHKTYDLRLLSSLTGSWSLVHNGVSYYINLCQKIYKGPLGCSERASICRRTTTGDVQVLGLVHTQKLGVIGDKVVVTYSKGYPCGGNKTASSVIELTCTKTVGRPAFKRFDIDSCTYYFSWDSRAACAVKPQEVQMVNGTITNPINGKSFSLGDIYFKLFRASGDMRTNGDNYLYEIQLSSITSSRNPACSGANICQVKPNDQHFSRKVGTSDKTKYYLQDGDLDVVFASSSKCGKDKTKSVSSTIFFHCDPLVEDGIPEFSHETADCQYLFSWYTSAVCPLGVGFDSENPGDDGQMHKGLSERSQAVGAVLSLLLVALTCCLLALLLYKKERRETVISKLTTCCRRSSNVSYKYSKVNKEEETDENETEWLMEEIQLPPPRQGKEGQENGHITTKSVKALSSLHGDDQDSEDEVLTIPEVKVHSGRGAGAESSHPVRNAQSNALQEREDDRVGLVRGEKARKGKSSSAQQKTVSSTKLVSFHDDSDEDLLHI
Protocol: (§1) As observed at light microscopy, 100 ng/mL neoIDUA was already internalised by MPSI fibroblasts from Scheie patient after 3 h incubation (FIG. 17 B-E). […] Glyceraldehyde 3-phosphate dehydrogenase (GAPDH) immunodetection was used as an internal control for total protein loading.

MDA-MB-231 = experiment: Cytotoxicity on breast cancer cell line MDA-MB-231; type: cell-based, human; settings: data not shown
CI-M6PR [2] = experiment: Binding assay to biotinylated CI-M6PR (displacement from adsorbed pentamannose 6-phosphate); settings: for binding affinity to CI-M6PR (in words) / stability of affinity in buffer solution: 20° C.
Protocol: The binding assays of the M6 Pa were performed using biotinylated CI-M6PR. Briefly, the CI-M6PR, purified on a phosphomannan-sepharose affinity column was biotinylated by N-hydroxysuccinimide biotin. The binding of the biotinylated CI-M6PR(CI-M6PRb) to pentamannose 6-phosphate (PMP) previously adsorbed on a microtitre plate was displaced by increasing concentrations of M6 Pa. The bound CI-M6PRb was then determined using the streptavidin/peroxidase couple and OPD substrate by optical density measurements. In control experiments the method was standardized by determining of the maximal concentration of the PMP adsorbed to the microtitre plate and the CI-M6PRb concentration required to saturate the adsorbed PMP [Jeanjean A et al., Bioorg Med Chem 14: 3575-82, 2006].
The binding assays of the cathD-AMFA-1 were performed using biotinylated CI-M6PR to the same protocol used for AMFA-1 binding assay, as detailed in section 1.2.

[3] = test system: human normal fibroblast IMR-90 cell line; experiment: Cytotoxicity on human normal fibroblast cell line; type: cell-based; settings: FIG. 14C
MCF7 = experiment: Cytotoxicity on breast cancer cell line MCF7; type: cell-based, human; settings: data not shown
[4] = type: in vitro ADME
Protocol: (§2) Previous results have shown that a complex cathepsin D/anti-cathepsin D antibody was specifically internalised by CI-M6PR in normal human fibroblasts [Laurent-Matha V et al., J Cell Sci. 111: 2539-49, 1998]. The complex was here detected by immunofluorescence staining.
The binding affinity of AMFA-1, AMFA-2, AMFA-3 and AMFA-5 to CI-M6PR was determined at 20° C. (A) or in the presence of 75% human serum at 37° C. […] Methods are identical to 1.8 section.

FIG.15 = experiment: FIG.15
Protocol: Table printed on a drawing sheet, FIG.15
(A) and in human serum (B).
First reader's note: Stability (%) matches the CI-M6PR binding affinity remaining at the last time point of incubation in human serum in the plot printed below the table.

CI-M6PR [5] = target: T1, CI-M6PR; experiment: Endocytosis of cathepsin D/anti-cathepsin D antibody complex via CI-M6PR in normal human fibroblasts (immunofluorescence); type: cell-based; settings: cells pre-incubated with 10 mM; control cells 80%
Description: as §2

Homozygous IDUA −/− mice = experiment: Therapeutic efficacy in mucopolysaccharidosis I (MPSI) mouse model, urinary GAG; type: in vivo; settings: 0.16 mg/kg body weight/week intravenously, 6 weeks; Mean ± SD
Protocol: Homozygous IDUA −/− mice (6-8 week-old) were treated intravenously with vehicle alone (control) or with 0.16 mg neoIDUA/kg body weight/week for 6 weeks. The secreted GAG were assayed in urine after 6 injections and normalized to urine creatinine concentrations using methods previously described [Barbosa et al., Glycobiology Adv. Access 13: 647-53, 2003].

[6] = test system: MPSI fibroblasts from Scheie patient; experiment: neoIDUA cell internalisation in MPSI fibroblasts; type: cell-based, human
Protocol: as §1

Hurler fibroblasts = experiment: Viability of Hurler fibroblasts (MTT assay); type: cell-based, human; settings: 100-500 ng/mL
Protocol: Cell viability was evaluated by MTT assay [Maynadier et al. FASEB J, 22: 671-81, 2008].

[7] = test system: Hurler patient fibroblasts; experiment: Secreted GAG in culture medium of Hurler patient fibroblasts (Blyscan kit); type: cell-based, human

Molecule: NNC(=O)CCCCCO[C@H]1O[C@H](CCP(=O)(O)O)[C@@H](O)[C@H](O)[C@@H]1O.[Na].[Na] [AMFA-1, 5-hydrazinocarbonylpentyl 6-deoxy-6-dihydroxyphosphinylmethyl-α-D-mannopyranoside disodium salt]
- effect on uptake of neoIDUA by the cells (CI-M6PR [1]): totally prevented
- toxicity in human breast cancer cell line MDA (MDA-MB-231): no toxicity
- binding affinity to CI-M6PR (in words) (CI-M6PR [2]): high binding affinity
- binding affinity for CI-M6PR (comparison in words) (CI-M6PR [2]; FIG. 1, FIG. 14): identical to those of phosphonate 1 alone
- toxicity in human fibroblasts [3]: absence of toxicity
- toxicity in human breast cancer cell line MCF7 (MCF7): no toxicity
- stability in human serum (in words) ([4]; 75% (v/v) human serum, disodium salt): identical to those of phosphonate 1 alone; also recorded: stable

Molecule: 5-hydrazinocarbonylpentyl 6-phosphate-α-D-mannopyranoside disodium salt [M6P-hexanehydrazide, reference compound]
- stability of affinity in buffer solution (CI-M6PR [2]): stable affinity
- decrease of affinity in human serum ([4]; 75% human serum at 37° C., after 7-8 h): ~50%
- decrease of affinity in human serum ([4]; 75% human serum at 37° C., after 16 h): 84%

Molecule: NOCCO[C@H]1O[C@H](CCP(=O)(O)O)[C@@H](O)[C@H](O)[C@@H]1O.[Na].[Na] [AMFA-3, Disodium salt of 2-(aminoxy)ethyl 6-deoxy-6-dihydroxyphosphinylmethylene-α-D-mannopyranoside]
- Stability (%) (FIG.15): 91%
- binding affinity to CI-M6PR (in words) (CI-M6PR [2]): high binding affinity
- stability in human serum (in words) [4]: stable

Molecule: 5-hydrazinocarbonylpentyl 6-phosphate-α-D-mannopyranoside disodium salt [M6P-hexanehydrazide]
- Stability (%) (FIG.15): 16%

Molecule: O=C[C@@H](O)[C@@H](O)[C@H](O)[C@H](O)COP(=O)(O)O [M6P, mannose 6-phosphate]
- Stability (%) (FIG.15): 0%

Molecule: O=C[C@@H](O)[C@@H](O)[C@H](O)[C@H](O)COP(=O)(O)O [M6P, mannose 6-phosphate, reference compound]
- effect on uptake of neoIDUA by the cells (CI-M6PR [1]): strongly decreased
- stability of affinity in buffer solution (CI-M6PR [2]): stable affinity
- cells that internalized the cathepsin D/anti-cathepsin D antibody complex (CI-M6PR [5]): 30%
- decrease of affinity in human serum ([4]; human): ~50%
- decrease of affinity in human serum ([4]; human, 16 h): 100%

Molecule: NNC(=O)CCn1cc(CO[C@H]2O[C@H](CCP(=O)(O)O)[C@@H](O)[C@H](O)[C@@H]2O)nn1.[Na].[Na] [AMFA-2, Disodium salt of (Hydrazinocarbonylethyl)-1H-1,2,3-triazol-4-yl-methyl 6-Deoxy-6-dihydroxyphosphinylmethylene-α-D-mannopyranoside]
- Stability (%) (FIG.15): 90%
- binding affinity to CI-M6PR (in words) (CI-M6PR [2]): high binding affinity
- stability in human serum (in words) [4]: stable

Molecule: natural cathepsin D: human lysosomal enzyme, high affinity ligand for CI-M6PR with bisphosphorylated chains
- Kd (CI-M6PR [2]; FIG. 16A, read-out: affinity for CI-M6PR (Kd)): 15 nM

Molecule: COC(=O)CCCCCO[C@H]1O[C@H](CC(C(=O)[O-])C(=O)[O-])[C@@H](O)[C@H](O)[C@@H]1O.[Na+].[Na+] [AMFA-5, [5-methoxycarbonylpentyl 6,7-dideoxy-7-(carboxy)-α-D-manno-octopyranoside]uronate disodium salt]
- Stability (%) (FIG.15): 90%
- binding affinity to CI-M6PR (in words) (CI-M6PR [2]): high binding affinity
- stability in human serum (in words) [4]: stable

B1: IDUA-AMFA-1: recombinant α-L-iduronidase from baculovirus/Sf9 cells coupled to AMFA-1 (conjugate, UniProt P35475 28-653, looked up)
Alpha-L-iduronidase: APHLVHVDAARALWPLRRFWRSTGFCPPLPHSQADQYVLSWDQQLNLAYVGAVPHRGIKQVRTHWLLELVTTRGSTGRGLSYNFTHLDGYLDLLRENQLLPGFELMGSASGHFTDFEDKQQVFEWKDLVSSLARRYIGRYGLAHVSKWNFETWNEPDHHDFDNVSMTMQGFLNYYDACSEGLRAASPALRLGGPGDSFHTPPRSPLSWGLLRHCHDGTNFFTGEAGVRLDYISLHRKGARSSISILEQEKVVAQQIRQLFPKFADTPIYNDEADPLVGWSLPQPWRADVTYAAMVVKVIAQHQNLLLANTTSAFPYALLSNDNAFLSYHPHPFAQRTLTARFQVNNTRPPHVQLLRKPVLTAMGLLALLDEEQLWAEVSQAGTVLDSNHTVGVLASAHRPQGPADAWRAAVLIYASDDTRAHPNRSVAVTLRLRGVPPGPGLVYVTRYLDNGLCSPDGEWRRLGRPVFPTAEQFRRMRAAEDPVAAAPRPLPAGGRLTLRPALRLPSLLLVHVCARPEKPPGQVTRLRALPLTQGQLVLVWSDEHVGSKCLWTYEIQFSQDGKAYTPVSRKPSTFNLFVFSPDTGAVSGSYRVRALDYWARPGPFSDPVPYLEVPVPRGPPSPGNP
modifications: coupled to AMFA-1
- Secreted GAG concentrations/creatinine concentrations in urine (Homozygous IDUA −/− mice): 59.8 % control and 59.8 ± 9.0 % control
- internalisation by MPSI fibroblasts (light microscopy) ([6]; 100 ng/mL, 3 h incubation, Scheie patient): internalised
- internalization in cell extracts (Western Blot) ([6]; after 24 h incubation): demonstrated
- toxicity on Hurler fibroblasts (Hurler fibroblasts): not toxic
- cell viability (Hurler fibroblasts; 72 h): slightly potentiate cell viability
- Secreted GAG concentrations in culture medium ([7]; 24 h treatment, control 0.018): 0.009 µg/mL
- Secreted GAG concentrations in culture medium ([7]; 48 h treatment, control 0.022): 0.016 µg/mL
- Secreted GAG concentrations in culture medium ([7]; 72 h treatment, control 0.032): 0.018 µg/mL
- reduction of GAG secretion ([7]; from 24 to 72 h): up to 50%
